Results reported in paper PMC6407579, “New flavonoid – N,N-dibenzyl(N-methyl)amine hybrids: Multi-target-directed agents for Alzheimer´s disease endowed with neurogenic properties” (Journal of Enzyme Inhibition and Medicinal Chemistry, 2019).
Where “and” joins values, the source holds several entries; their conditions need not be identical. Equal values may be shown once. Read-outs that look alike come from different tables or passages of the source.

What was measured:
[1] = target: T1, human recombinant AChE (hAChE) (Homo sapiens, UniProt P22303); experiment: biochemical
T1 construct: purchased Sigma Chemical Co
Experimental: The Ellman method was followed, using human recombinant AChE and BuChE from human serum. The assay solution consisted of 0.1 M phosphate buffer pH 8.0, 400 μM 5,5´-dithiobis(2-nitrobenzoic acid) (DTNB, Ellman’s reagent), 0.05 U/mL hAChE (Sigma Chemical Co.) or 0.024 U/mL hBuChE (Sigma Chemical Co.), and 800 μM acetylthiocholine iodide, or 500 μM butyrylthiocholine as the substrate of the enzymatic reaction, respectively. The compounds tested were added to the assay solution and preincubated with the enzyme for 5 min at 30 °C. After that period, the substrate was added.

recombinant hMAO-B = target: T2, recombinant hMAO-B (Homo sapiens, UniProt P27338); experiment: biochemical; format: biochemical; settings: mean ± SEM (n = 3); 100 µM highest concentration tested
T2 sequence (P27338 1-520): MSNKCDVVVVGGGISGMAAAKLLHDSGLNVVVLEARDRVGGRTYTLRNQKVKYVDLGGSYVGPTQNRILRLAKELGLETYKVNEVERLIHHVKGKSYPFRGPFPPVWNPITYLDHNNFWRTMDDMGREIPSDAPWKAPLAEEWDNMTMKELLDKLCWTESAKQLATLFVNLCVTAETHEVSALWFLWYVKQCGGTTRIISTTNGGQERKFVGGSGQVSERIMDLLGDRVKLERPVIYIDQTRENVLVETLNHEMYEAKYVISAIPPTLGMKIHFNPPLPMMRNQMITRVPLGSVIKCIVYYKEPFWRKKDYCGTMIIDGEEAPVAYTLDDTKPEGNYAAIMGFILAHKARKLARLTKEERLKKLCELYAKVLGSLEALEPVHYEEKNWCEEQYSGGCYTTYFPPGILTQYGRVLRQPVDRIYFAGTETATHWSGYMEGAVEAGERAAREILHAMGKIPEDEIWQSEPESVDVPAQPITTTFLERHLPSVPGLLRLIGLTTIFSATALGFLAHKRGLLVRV

hAChE = target: T3, hAChE (Homo sapiens, UniProt P22303); experiment: Kinetic analysis of hAChE inhibition (Lineweaver-Burk); format: biochemical
T3 construct: purchased Sigma Chemical Co
Experimental: Figure 3. Kinetic study on the mechanism of hAChE inhibition by hybrid 5. (A) Overlaid Lineweaver-Burk reciprocal plots of hAChE initial velocity at increasing substrate concentration (ATCh, 0.2–1.6 mM) in the absence of inhibitor and in the presence of 5 (0–10 µM) are shown. Lines were derived from a least-squares analysis of the data points. (B) Replot of slopes vs. inhibitor concentration for calculating Ki as the intersection in the x-axis. […]
The initial velocity of enzymatic inhibition was measured at four concentrations of the substrate acetylthiocholine (ATCh, 0.2–1.6 mM), in absence and presence of increasing concentrations of inhibitor 5 (0.5–10 µM). For each inhibitor concentration, plotting reciprocals of velocity vs. ATCh concentration (1/V vs. 1/[ATCh]) gave straight lines that were fitted by least-squares analysis (Figure 3). […]

[2] = Oxygen radical absorbance capacity assay (ORAC); settings: trolox taken as 1.0
σ1R = target: T4, σ1R (Cavia porcellus, UniProt Q60492); experiment: Sigma-1 receptor binding, [3H]-(+)-pentazocine competition; design: species or system guinea pig
T4 construct: the thawed membrane preparation of guinea pig brain cortex; from tissue; host or cells: guinea pig brain cortex membranes

[3] = target: T5, human recombinant BACE-1 (hBACE-1) (Homo sapiens, UniProt P56817); experiment: Human BACE-1 inhibition FRET assay; format: biochemical
T5 construct: purchased Invitrogen
Experimental: This experiment was carried out according to the protocol described by the manufacturer (Invitrogen) using a FRET assay[54]. […] The intact substrate is weakly fluorescent and becomes highly fluorescent upon enzymatic cleavage. The assays were conducted in 50 mM sodium acetate buffer, pH 4.5, in a final enzyme concentration (1 U/mL). The mixture was incubated for 60 min at 25 °C under dark conditions and then stopped with 2.5 M sodium acetate.

[4] = test system: adult mice SGZ-derived NSCs; experiment: Neurogenic assay on SGZ-derived neural stem cells grown as neurospheres; format: cell-based, mouse; settings: 10 µM, 7 days plus 3 days differentiation, vs. vehicle-treated cultures
Experimental: DAPI was used for nuclear staining.
Neural stem cells were isolated from the SGZ of the dentate gyrus of the hippocampus of adult mice and cultured as NS according to previously published protocols[75]^,[76]. […] Now, NS were adhered onto 100 μg/mL poly-L-lysine-coated coverslips and treated for 3 additional days in the presence of serum but in the absence of exogenous growth factors to induce differentiation[77]. Finally, the expression of neuronal markers was analysed by immunocytochemistry using antibodies linked to neurogenesis: β-III-tubulin polyclonal antibody (TuJ clone; Abcam), a protein expressed at early stages of neurogenesis and a monoclonal microtubule-associated protein type 2 (MAP-2) antibody, a classical marker of late neuronal maturation. To visualise primary antibodies Alexa-fluor-labeled secondary antibodies (Molecular probes) were used. Nuclei were stained with DAPI. Fluorescent representative images were acquired in a LSM710 laser scanning spectral confocal microscope (Zeiss). […]
Compound was added to NS cultures for 7 days and then, NS were fixed to a substrate and allowed to differentiate in the presence of 6 for a 3-days additional period. Then, we evaluated the expression of β-III-tubulin (TuJ-1 clone; green) and microtubule-associated protein 2 (MAP-2, red) antibodies to visualise early and late neuronal maturation, respectively.

[5] = mean ± SEM (n = 3), read-out: hAChE IC50

T4 sequence (Q60492 whole entry): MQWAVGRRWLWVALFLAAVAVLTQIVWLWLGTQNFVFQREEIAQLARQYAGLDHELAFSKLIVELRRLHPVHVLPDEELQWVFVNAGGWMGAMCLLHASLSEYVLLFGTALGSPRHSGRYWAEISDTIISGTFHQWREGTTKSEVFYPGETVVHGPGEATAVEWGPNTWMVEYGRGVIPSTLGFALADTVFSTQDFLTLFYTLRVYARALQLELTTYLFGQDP
T1 sequence (P22303 32-614): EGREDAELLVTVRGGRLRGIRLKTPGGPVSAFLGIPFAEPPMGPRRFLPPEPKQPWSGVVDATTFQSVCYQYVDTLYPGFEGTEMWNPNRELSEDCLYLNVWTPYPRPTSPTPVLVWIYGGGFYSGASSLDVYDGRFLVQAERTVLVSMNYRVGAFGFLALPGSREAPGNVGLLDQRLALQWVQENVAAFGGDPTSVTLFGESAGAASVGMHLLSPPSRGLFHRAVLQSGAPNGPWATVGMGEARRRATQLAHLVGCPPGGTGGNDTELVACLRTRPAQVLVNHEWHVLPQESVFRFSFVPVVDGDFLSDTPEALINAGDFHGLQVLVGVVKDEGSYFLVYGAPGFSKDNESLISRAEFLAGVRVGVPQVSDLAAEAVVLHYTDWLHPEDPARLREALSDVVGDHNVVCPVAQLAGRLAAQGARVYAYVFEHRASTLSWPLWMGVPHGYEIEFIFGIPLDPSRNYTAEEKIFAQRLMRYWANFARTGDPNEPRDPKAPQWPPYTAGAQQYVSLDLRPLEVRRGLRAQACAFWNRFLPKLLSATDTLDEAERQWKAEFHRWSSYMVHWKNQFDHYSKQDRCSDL
T5 sequence (P56817 46-501): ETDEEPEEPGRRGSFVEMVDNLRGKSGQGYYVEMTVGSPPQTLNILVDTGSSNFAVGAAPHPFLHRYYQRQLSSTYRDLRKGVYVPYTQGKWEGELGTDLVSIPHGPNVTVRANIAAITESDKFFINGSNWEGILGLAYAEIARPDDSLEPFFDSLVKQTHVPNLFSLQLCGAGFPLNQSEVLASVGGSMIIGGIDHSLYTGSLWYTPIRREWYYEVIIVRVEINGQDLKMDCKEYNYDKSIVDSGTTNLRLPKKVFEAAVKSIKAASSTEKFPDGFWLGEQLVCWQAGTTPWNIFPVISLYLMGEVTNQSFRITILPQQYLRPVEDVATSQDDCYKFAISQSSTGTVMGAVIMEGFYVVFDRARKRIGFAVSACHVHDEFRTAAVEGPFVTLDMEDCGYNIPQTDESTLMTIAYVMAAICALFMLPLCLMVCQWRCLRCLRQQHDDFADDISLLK
T3 sequence (P22303 32-614): as the sequence (P22303 32-614) above

Row | SMILES | IC50 ([1]; hAChE IC50, mean ± SEM (n = 3)) | IC50 (recombinant hMAO-B) [µM] | Ki (hAChE) [µM] | mechanism of hAChE inhibition (hAChE; Lineweaver-Burk) | IC50 [1, 5] [µM] | ORAC, trolox equivalents [2] | Ki (σ1R) [µM] | Selectivity vs. σ1R (Kiσ2R/Kiσ1R) (σ1R) | inhibition at 10 µM ([3]; 10 µM, read-out: hBACE-1 inhibition percentage) [%] | IC50 ([3]; inhibitor concentrations 0.1–100 µM) [µM] | IC50 (σ1R) | Ki (σ1R; guinea pig brain cortex membranes, [3H]-(+)-pentazocine, mean ± SEM, read-out: Ki σ1R) [µM] | number of TuJ-1 and MAP-2 marked cells (neuronal differentiation of NSCs) [4]
1 | COc1cc2oc(C(=O)Nc3ccc(CN(C)Cc4ccccc4)cc3)cc(=O)c2cc1OC [Compound 5, N-(4-((Benzyl(methyl)amino)methyl)phenyl)-6,7-dimethoxy-4-oxo-4H-chromene-2-carboxamide] | 0.99 µM and 1 µM | 8.1 ± 0.4 | 0.95 | a mixture of competitive and non-competitive mechanisms |  |  |  |  |  |  |  |  | 
2 | CN(Cc1ccccc1)Cc1ccc(NC(=O)c2cc(=O)c3cc(O)ccc3o2)cc1 [Compound 2, N-(4-((Benzyl(methyl)amino)methyl)phenyl)-6-hydroxy-4-oxo-4H-chromene-2-carboxamide] |  | 9.7 ± 1.6 |  |  | 1.3 ± 0.3 | 1.6 mmol of trolox/mmol of tested compound and 1.6 ± 0.2 mmol of trolox/mmol of tested compound | 0.38 ± 0.05 | 4.2 |  |  |  |  | 
3 | COc1ccc2oc(C(=O)Nc3ccc(CN(C)Cc4ccccc4)cc3)cc(=O)c2c1 [Compound 1, N-(4-((Benzyl(methyl)amino)methyl)phenyl)-6-methoxy-4-oxo-4H-chromene-2-carboxamide] |  | 59.8 ± 3.7 |  |  | 1.5 ± 0.2 |  | 0.48 ± 0.05 | 3.7 |  |  |  |  | 
4 | COc1cc2oc(C(=O)Nc3cccc(CN(C)Cc4ccccc4)c3)cc(=O)c2cc1OC [Compound 6, N-(3-((Benzyl(methyl)amino)methyl)phenyl)-6,7-dimethoxy-4-oxo-4H-chromene-2-carboxamide] | 4.5 ± 0.8 µM | > 100 |  |  |  |  |  | 2.5 | ~80 | 6.7 ± 0.8 | 0.53 µM and 0.5 µM | 0.53 ± 0.07 | clearly increased
